Drawing on PubChem BioAssay (NCI), this text covers TGI and GI50 for 8 compounds.

Test systems include OVCAR-3 ovarian; CAKI-1 renal; TK-10 renal; UACC-257 melanoma; SNB-75 CNS; HL-60(TB) leukemia; SN12C renal; EKVX NSCLC; OVCAR-5 ovarian; SK-MEL-28 melanoma.
Common to all, as to experiment: growth of human tumour cells (NCI), 48 h

Structures are written as SMILES.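 Each compound was tested at five concentrations against cells in 96-well plates for 48 hours. GI50 is the concentration that inhibits growth by half. At the TGI there is no net growth.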 Some results are limits rather than exact numbers.

For `CC(=O)OCC1OC(n2cnc3c(I)nc(I)nc32)C(OC(C)=O)C1OC(C)=O` (stereo not given), the TGI with OVCAR-3 ovarian worked out at 20.1 µM; with CAKI-1 renal it was 4.09 µM; in the experiment on TK-10 renal it was 33.6 µM; in the experiment with UACC-257 melanoma, 27.5 µM; in the experiment with SNB-75 CNS it was 30.2 µM; in the experiment with HL-60(TB) leukemia, 5.52 µM. For the same compound, the TGI came to 26.7 µM in the experiment with SN12C renal, 33.3 µM in the experiment on EKVX NSCLC, 35.1 µM with OVCAR-5 ovarian and 28.5 µM in the experiment with SK-MEL-28 melanoma.
On to `O=S(=O)(Nc1ccc2ccc3cccc4ccc1c2c34)c1ccccc1`, for which the TGI in the experiment on OVCAR-3 ovarian was 48.9 µM; in the experiment on CAKI-1 renal, over 100 µM; in the experiment on TK-10 renal, over 100 µM; in the experiment on UACC-257 melanoma, over 100 µM; with SNB-75 CNS, over 100 µM; in the experiment on HL-60(TB) leukemia it was over 100 µM. For the same compound, the TGI was 65.4 µM with SN12C renal, over 100 µM in the experiment with EKVX NSCLC, over 100 µM with OVCAR-5 ovarian and over 100 µM with SK-MEL-28 melanoma.
`CC1=C(C(=O)Nc2cc(F)c(F)cc2F)C(c2cccc([N+](=O)[O-])c2)C(C(=O)Nc2ccccc2C(F)(F)F)=C(C)N1` (stereo not given): the TGI is 41.9 µM with OVCAR-3 ovarian; 49.6 µM with CAKI-1 renal; 71.5 µM with TK-10 renal; 59.3 µM in the experiment with UACC-257 melanoma; 38.4 µM with SNB-75 CNS; 37.1 µM in the experiment on HL-60(TB) leukemia. Also, the TGI in the experiment with SN12C renal came out at 56.5 µM; in the experiment with EKVX NSCLC it was 77.1 µM; in the experiment with OVCAR-5 ovarian, 62.1 µM; with SK-MEL-28 melanoma it was 62.2 µM.
Take `COc1cc2c(cc1OCCCN1CCN(CCCOc3cc4c(cc3OC)C(=O)C3CCC[C@H]3C=N4)CC1)N=C[C@@H]1CCCC1C2=O` (stereo not given in full): the GI50 in the experiment on OVCAR-3 ovarian was 8.17 µM; in the experiment on CAKI-1 renal, 26.5 µM; in the experiment with TK-10 renal, 7.9 µM; with UACC-257 melanoma, 13 µM; with SNB-75 CNS it was 24.8 µM; in the experiment on HL-60(TB) leukemia, 1.51 µM. The GI50 in the experiment on SN12C renal was 10.4 µM; in the experiment with EKVX NSCLC, 34.2 µM; in the experiment with OVCAR-5 ovarian, 4.84 µM; in the experiment on SK-MEL-28 melanoma it was 32.9 µM. Besides, the TGI in the experiment with OVCAR-3 ovarian was 60.6 µM; with CAKI-1 renal, over 79.8 µM; with TK-10 renal it was over 100 µM; in the experiment with UACC-257 melanoma, over 46.4 µM; in the experiment on SNB-75 CNS, over 85.4 µM; in the experiment on HL-60(TB) leukemia, 4.1 µM. Moreover, the TGI in the experiment with SN12C renal was over 100 µM; in the experiment with EKVX NSCLC it was over 100 µM; with OVCAR-5 ovarian, over 27.2 µM; in the experiment on SK-MEL-28 melanoma, over 100 µM.
For `COC12c3ccccc3-c3ccccc3C1[C@@H](C(=O)O)[C@H]2C(=O)O` (stereo not given in full), the TGI in the experiment with OVCAR-3 ovarian, in the experiment on CAKI-1 renal, with TK-10 renal, with UACC-257 melanoma, in the experiment on SNB-75 CNS and with HL-60(TB) leukemia was over 10 µM each time. Also, the TGI in the experiment with SN12C renal, in the experiment with EKVX NSCLC, in the experiment on OVCAR-5 ovarian and in the experiment with SK-MEL-28 melanoma was over 10 µM throughout.
For `Nc1nccc(C#Cc2cncnc2Nc2ccc(OCc3cccc(F)c3)c(Cl)c2)n1`, the GI50 in the experiment with OVCAR-3 ovarian was 3.83 µM; with CAKI-1 renal, 5.37 µM; in the experiment on TK-10 renal it was 4.5 µM; in the experiment with UACC-257 melanoma, 3.92 µM; with SNB-75 CNS, 5.75 µM; in the experiment on HL-60(TB) leukemia, 5.7 µM. Moreover, the GI50 in the experiment with SN12C renal was 3.22 µM; in the experiment on EKVX NSCLC it was 4.51 µM; in the experiment on OVCAR-5 ovarian, 5.45 µM; in the experiment on SK-MEL-28 melanoma, 4.57 µM. Moreover, the TGI was 7.18 µM in the experiment on OVCAR-3 ovarian; 11 µM with CAKI-1 renal; 8.22 µM in the experiment on TK-10 renal; 7.64 µM in the experiment on UACC-257 melanoma; over 14.3 µM in the experiment on SNB-75 CNS; 14.5 µM in the experiment with HL-60(TB) leukemia. The TGI in the experiment on SN12C renal amounted to 9.98 µM; in the experiment on EKVX NSCLC, 9.85 µM; in the experiment with OVCAR-5 ovarian, 11.3 µM; in the experiment with SK-MEL-28 melanoma, 8.29 µM.
As to `O=C(NCCS(=O)(=O)N1C(=O)C2CCCN2C(=O)[C@@H]1Cc1ccccc1)OCc1ccccc1` (stereo not given in full), the TGI in the experiment with OVCAR-3 ovarian is 70.2 µM; in the experiment with CAKI-1 renal it was over 100 µM; with TK-10 renal, over 100 µM; in the experiment with UACC-257 melanoma, over 100 µM; with SNB-75 CNS, over 100 µM; in the experiment with HL-60(TB) leukemia, 48.9 µM. Besides, the TGI in the experiment on SN12C renal, with EKVX NSCLC, with OVCAR-5 ovarian and with SK-MEL-28 melanoma was over 100 µM in each case.
As to `O=C1c2cccnc2-c2nc(-c3ccccc3)cc3c2c1nc1ccccc13`, the GI50 was 0.31 µM in the experiment on OVCAR-3 ovarian; 6.67 µM in the experiment on CAKI-1 renal; 24.3 µM in the experiment with TK-10 renal; 0.835 µM with UACC-257 melanoma; 10.5 µM in the experiment with SNB-75 CNS; 1.12 µM in the experiment with HL-60(TB) leukemia. In addition, the GI50 with SN12C renal is 7.14 µM; with EKVX NSCLC, 5.1 µM; in the experiment with OVCAR-5 ovarian it was 16.2 µM; in the experiment with SK-MEL-28 melanoma, 14.8 µM. Besides, the TGI in the experiment on OVCAR-3 ovarian is over 100 µM; in the experiment on CAKI-1 renal it was 17.5 µM; in the experiment on TK-10 renal, over 85.2 µM; in the experiment with UACC-257 melanoma it was 8.08 µM; in the experiment with SNB-75 CNS, 23.1 µM; in the experiment on HL-60(TB) leukemia, 3.01 µM. The TGI turned out to be 21.1 µM in the experiment with SN12C renal, 18.1 µM in the experiment with EKVX NSCLC, 30.8 µM with OVCAR-5 ovarian and 29.8 µM in the experiment on SK-MEL-28 melanoma.
